Experimental data taken from EP2401611B1, “IMPROVED METHODS FOR IDENTIFICATION” (Cambridge Enterprise Limited, priority 2009, dated 2010).
Like-named read-outs stand apart in the source and are kept apart here.

Legend:
[1] = system: TNF-alpha; assay: Sub-lethal endotoxemia model (LPS challenge, serum TNF-alpha); type: in vivo, mouse; conditions: BN83250 subcutaneous, valerolactam oral gavage
Description: We selected the sub-lethal endotoxemia model in mouse, because this has been well characterised in our laboratory (see for example Fox et al. (2002) J. Med. Chem. 45:360-70; Fox et al. (2005) J. Med. Chem. 48:867-74). The extent of systemic inflammation in response to a single intraperitoneal injection of bacterial lipopolysaccharide (LPS) can be estimated by measuring serum TNF-alpha 2 hours post challenge.
Methods: Mice (CD1 strain; adult males; 6 per group) were treated with BSCI (in an appropriate vehicle) or with vehicle alone by an appropriate route. […] Simultaneously, one set of mice at each BSCI concentration received BIM 23627 at 4mg/animal (120mg/kg) by sub-cutaneous injection (a treatment condition known to suppress classical sstr2-mediated signalling, such as GH release, in rats; Tulipano et al. (2002) 143:1218-24). Between 30mins and 1hour after dosing (a period when a maximal plasma concentration of BSCI has been achieved), the inflammatory challenge was elicited by intraperitoneal injection of 750µg of LPS (Sigma; L4130 lot#024K4077; 900,000 EU/mg).
After a further 2 hours, the animals were sacrificed by CO2 asphyxiation, and blood was drawn by cardiac puncture. Serum was prepared by conventional methods, and the level of TNF-alpha in serum was measured using an ELISA (R&D Systems; Murine Quantikine code# MTA00) performed in accordance with the manufacturer's instructions.

[2] = system: Jurkat-D3B cells; assay: SDF-1α induced migration of Jurkat-D3B cells expressing sstr2; type: cell-based, human
Description: Methods: Total mRNA was prepared from Panc-1 cells (a human pancreas cell line which is well known to express high levels of sstr2) using the RNAqueous 4PCR kit (Ambion, Cat code #1914) in accordance with the manufacturer's instructions. The mRNA was then reverse transcribed (using the RETROscript kit; Ambio) to yield a cDNA preparation. A full length cDNA of the sstr2 gene was then obtained by PCR (using a Peltier PTC-200 thermal cycler using the following cycle times and conditions: 94°C for 2 min, followed by 30 cycles of 94°C, for 30 sec, 55°C for 30sec, 72°C for 1 min and finally 72°C for 10 min), and isolated by preparative gel electrophoresis. The sequence of the sstr2 cDNA was confirmed by sequencing. The sstr2 cDNA was treated with EcoRI and Xhol to generate sticky ends, which allowed directional cloning into the polylinker of the plasmid pcDNA3.1+ (Invitrogen) followed by ligation (10µl ligation reactions were run with 400 T4 DNA ligase (New England Biolabs) and the maximal amounts of DNA with an insert:plasmid ratio of 3:1 in ligase buffer incubated overnight at 13°C). The resulting vector (see Fig. 13) was used to transform XL-10 Ultracompetent cells (Stratagene) using standard techniques. Plasmid DNA was prepared using a MiniPrep kit (Wizard Plus SV Minipreps DNA purification System; Promega) in accordance with the manufacturer's instructions for transfection into Jurkat T cells.
Jurkat T cells were grown in RPMI + 10% foetal calf serum (FCS), and subcultured by 1:3 dilution in fresh medium every 4 days. Jurkat T cells in logarithmic growth phase 48 hours after subculture were washed by centrifugation and resuspended in serum-free RPMI medium at 7.5 x 10^5 cells per ml. A mixture of DNA and transfection reagent (2µg of DNA; 3µl Fugene 6 transfection reagent; Roche) was then added and the cells were incubated at 37°C for 48 hours. The cells were then washed three times by centrifugation in RPMI + 10% FCS, before being suspended in fresh medium at 1 x 10^5 cells per ml. 68 ml of the resulting cell suspension was then plated out in a total of 226 wells in 96-well plates (Corning). After 48hrs, G418 (0.9mg/ml Active G418) was added to the medium to select for transfectants, and the cells were expanded by repeated subculture, keeping the populations from individual wells (which were considered clonal or oligoclonal expansions) separate. […]
A number of individual cell lines were obtained in this way, which expressed significant levels of sstr2 on the cell surface, detected by flow cytometry using the human-sstr2 antibody (Sigma, S0694; see Example 3 for details of the flow cytometry protocol used). […]

[3] = system: Panc-2H4; assay: Human Panc-2H4 insulin suppression assay; type: cell-based; conditions: Homo sapiens
Excerpt: Two different assays for "classical" sstr2 functions were adopted: (1) cultured foetal rat pituitary cells secreted growth hormone which is inhibited by sstr2 agonists in a dose-dependent fashion and (2) selected glucose-sensitive sub-clones of the human Panc-1 cell line secrete insulin which is inhibited by sstr2 agonists in a dose-dependent fashion.
Glucose-sensitive sub-clones of the human Panc-1, a cell line derived from a pleiomorphic epithelioid carcinoma of the exocrine pancreas, were obtained essentially as described by Hamil et al. (2008) Biomed. Sci. Instrum. 44:441-6. Briefly, Panc-1 cells were subcultured in 24 well plates, and the medium was supplemented with an additional 5% glucose. […] The resulting sub-lines were then tested for glucose sensitivity by preparing wells of a 96-well plate (5 x 10^4 cells per well) which were then exposed to cultured medium containing a range of glucose concentrations (low glucose DMEM, DMEM, DMEM + 1% glucose, DMEM ± 2.5% glucose and DMEM + 5% glucose). After 24hrs incubation, the conditioned medium was collected and assayed for insulin secretion by ELISA (Linco; cat# EZHI-14K) in accordance with the manufacturer's instructions. […] Further 96 well plates were prepared using Panc-2H4 (5 x 10^4 cells per well) in DMEM. After 24hrs, the medium was switched to DMEM + 5% glucose containing various test agents at various concentrations (triplicate wells per condition). After a further 24hrs, the conditioned medium was harvested and the concentration of insulin was determined by ELISA as described above.
Results were reported as the mean ± SD, expressed as the fold change from cells in the presence of vehicle only.

[4] = Table 3, percentage suppression compared to vehicle, read-out: Human Panc-2H4 insulin suppression assay Max effect (%)

Structure (SMILES)	inhibition of LPS-induced TNF-alpha production (in words) [1]	inhibition of SDF-1α induced migration of Jurkat-D3B (in words) [2]	Emax [3, 4] [%]	EC50 ([2]; Homo sapiens, 100ng/ml SDF-1α, Jurkat-D3B, read-out: ED50 (the source's name)) [nM]	increase in BSCI sensitivity from ectopic expression of sstr2 ([2]; Jurkat-D3B versus parental Jurkat T cells)	EC50 ([3]; Table 3, read-out: Human Panc-2H4 insulin suppression assay ED50) [nM]	EC50 ([3]; Table 5, library screening hits, read-out: Panc-2H4 insulin suppression assay ("classical" target) ED50) [nM]	Emax ([3]; Table 5, read-out: Panc-2H4 insulin suppression assay ("classical" target) Max Effect (%)) [%]
CC(C)(C)C(=O)N[C@H]1CCCNC1=O [Valerolactam, (S)-3-(2'2'-dimethylpropionoylamino)-tetrahydropyridin-2-one]	dramatically inhibited	sensitive to inhibition	< 10	–	–	–	–	–
CCCCCCCCCCC(C)(C)C(=O)N[C@H]1CCCCNC1=O [BN83250, (S)-3-(2',2'-dimethyldodecanoyl)amino-caprolactam]	dramatically inhibited	inhibits SDF-1α induced migration	28	~10	more than 100 fold	1000	1000	28
